The subject of one series is Nostz Rats. As to the kind of experiment: Oral antidiabetic activity in Nostz rats (non-insulin-dependent diabetes induced by neonatal steptozotocin); change in glycaemia. The format is in vivo. The conditions noted are these: Rattus norvegicus, blood sample two hours after the final administration, diabetic rats; for change in vivo at 20 mg/kg: 20 mg/kg/day; for change in vivo at 200 mg/kg: 200 mg/kg/day. How it is done:
Study of the Antidiabetic Activity in Nostz Rats
The oral antidiabetic activity of the compounds of the formula (I) was determined on an experimental model of non-insulin-dependent diabetes, induced in the rats with steptozotocin.
The model of non-insulin-dependent diabetes is obtained in the rats by means of a neonatal injection (on the day of birth) of steptozotocin.
The diabetic rats used are eight weeks old. The animals are housed, from the day of birth to the day of the experiment, in an animal house at a regulated temperature of 21 to 22° C. and subjected to a fixed cycle of light (from 7 a.m. to 7 p.m.) and darkness (from 7 p.m. to 7 a.m.). Their food consisted of a maintenance diet, and water and food were given “ad libitum”, with the exception of fasting two hours before the tests, during which period the food is removed (post-absorptive state).
The rats are treated orally for one (D1) or four (D4) days with the test product. Two hours after the final administration of the product and 30 minutes after the animals have been anaesthetised with pentobarbital sodium (Nembutal®), a 300 μl blood sample is taken from the end of the tail.
By way of example, results obtained are collated in Table 2.

The mark [1] stands for this setting: 24 h, one day of treatment (D1), read-out: percentage change in the glycaemia on D1 relative to D0.
Where [2] appears, read: 96 h, four days of treatment (D4), read-out: percentage change in the glycaemia on D4 relative to D0.

Counter-ions that a name gives are not always drawn. Like-named read-outs stand apart in the source and are kept apart here.

A word on the melting point: it is the temperature, or range, at which the solid turns liquid.

With `N=C(N)NCC1Cc2ccccc2N1` (centres unmarked) (as salt: hemisulfate) [Compound 8], the melting point lay within 189 to 191 °C.
The same measure, in the same setting: as for `CN(Cc1nc2ccccc2s1)C(=N)N` (as salt: hydrochloride) [Compound 1, 2-(aminoiminomethyl(methylamino)methyl)-benzothiazole hydrochloride], the figure is 203 to 205 °C.
Same read-out and setting: next, `N=C(N)NCc1nc2ccccc2[nH]1` (as salt: hydrochloride) [Compound 2, 2-(aminoiminomethylamino)methylbenzimidazole hydrochloride]: 171 to 173 °C; `N=C(N)NCc1nc2ccccc2s1` (as salt: hydrochloride) [Compound 5]: 196 to 198 °C.
On the same count and under the same terms, as for `CN(Cc1nc2ccccc2[nH]1)C(=N)N` (as salt: hydrochloride) [Compound 6], the figure is 253 to 255 °C.
As to `Cn1c(CNC(=N)N)cc2cc(F)ccc21` (as salt: hydrochloride) [Compound 14], the melting point lay within 181 to 183 °C.
On the same count and under the same terms, as for `CN(CC1=Cc2ccccc2C1)C(=N)N` (as salt: hydrochloride) [Compound 16], the figure is 209 to 211 °C; as for `N=C(N)NCC1Cc2ccccc2C1` (as salt: sulfate) [Compound 3, 2-(aminoiminomethylamino)methylindane sulfate], 231 to 233 °C.
Still for that read-out and setting: next, `COc1cc2c(cc1OC)CC(CNC(=N)N)C2` (as salt: sulfate) [Compound 11]: 191 to 193 °C; `COc1ccc2c(c1)cc(CNC(=N)N)n2C` (as salt: sulfate) [Compound 12]: 233 to 235 °C; `COc1ccc2[nH]c(CNC(=N)N)cc2c1` (as salt: sulfate) [Compound 13]: 213 to 215 °C.
On the same count and under the same terms, next, `N=C(N)NCc1cc2ccccc2o1` (as salt: sulfate) [Compound 15]: 244 to 247 °C.
The compound `N=C(N)NCC1Cc2cc(F)c(F)cc2C1` (as salt: sulfate) [Compound 17] came in with a melting point of over 250 °C.
As to `CN(Cc1nc2ccccc2s1)C(=N)N` [Compound 1, 2-(aminoiminomethyl(methylamino)methyl)-benzothiazole hydrochloride], in the series with Nostz Rats (setting [1]), the change in vivo at 20 mg/kg was found to be 5% and the change in vivo at 200 mg/kg was -9%. Further, in the series with Nostz Rats (setting [2]), the change in vivo at 20 mg/kg was -4% and the change in vivo at 200 mg/kg was -23%.
The like results for `N=C(N)NCc1nc2ccccc2[nH]1` [Compound 2, 2-(aminoiminomethylamino)methylbenzimidazole hydrochloride] were, in that order, -17%, -10%, -13% and -25%.
The like results for `N=C(N)NCC1Cc2ccccc2C1` [Compound 3, 2-(aminoiminomethylamino)methylindane sulfate] were, in that order, 2%, -14%, -10% and -29%.
Taken in the same sequence, the figures for `N=C(N)NCc1nc2ccccc2s1` [Compound 5] were -18%, -30%, -3% and -26%.
Regarding `CN(Cc1nc2ccccc2[nH]1)C(=N)N` [Compound 6], in the series on Nostz Rats (setting [1]), the change in vivo at 20 mg/kg was found to be 3% and the change in vivo at 200 mg/kg is -6%. Further, in the series with Nostz Rats (setting [2]), the change in vivo at 20 mg/kg is 0% and the change in vivo at 200 mg/kg was -16%.
The like results for `N=C(N)NCc1cc2ccccc2[nH]1` [Compound 7] were, in that order, -5%, -19%, -9% and -28%.
Taken in the same sequence, the figures for `N=C(N)NCC1Cc2ccccc2N1` (centres unmarked) [Compound 8] were -7%, -10%, -12% and -9%.
Take `N=C(N)NCC1Cc2ccccc2O1` (centres unmarked) [Compound 9]: the melting point was in the range of 139 to 141 °C.
The compound `N=C(N)NCC1Cc2ccccc2S1` (centres unmarked) [Compound 10] yielded a melting point of 187 to 189 °C. Also, in the series with Nostz Rats (setting [1]), the change in vivo at 20 mg/kg is -3% and the change in vivo at 200 mg/kg was -21%. In the series with Nostz Rats (setting [2]), the change in vivo at 20 mg/kg was -5% and the change in vivo at 200 mg/kg is -25%.
`COc1cc2c(cc1OC)CC(CNC(=N)N)C2` [Compound 11]: in the series on Nostz Rats (setting [1]), the change in vivo at 20 mg/kg was -1% and the change in vivo at 200 mg/kg was -8%. Further, in the series on Nostz Rats (setting [2]), the change in vivo at 20 mg/kg is -8% and the change in vivo at 200 mg/kg was -14%.
Take `COc1ccc2c(c1)cc(CNC(=N)N)n2C` [Compound 12]: the change in vivo at 200 mg/kg with Nostz Rats (setting [1]) was -22%; in the series on Nostz Rats (setting [2]) it was -26%.
Taken in the same sequence, the figures for `COc1ccc2[nH]c(CNC(=N)N)cc2c1` [Compound 13] were -16% and -26%.
For the compound `N=C(N)NCc1cc2ccccc2o1` [Compound 15], the figures for the change in vivo at 20 mg/kg in the series with Nostz Rats (setting [1]) and in the series with Nostz Rats (setting [2]) were -23% and -28%, respectively. In addition, the change in vivo at 200 mg/kg with Nostz Rats (setting [1]) is -29%; in the series with Nostz Rats (setting [2]), -31%.
